In ChEMBL document CHEMBL3046383, “Enantioselective Herbicidal Activity of Chiral α-Methylbenzylphenylureas against Cyperaceae and Echinochloa Paddy Weeds” (Biosci Biotechnol Biochem, 1998):
Active and inactive are the calls of the source. No rule for the calls is given here.

What was measured:
Echinochloa oryzicola = assay: Herbicidal activity against Echinochloa oryzicola assessed as phytotoxic activity ratings (0- no effect to 5-complete killing rating scale) at 100 g/a measured after 3 weeks post compound treatment under green house conditions; assay type: functional
Cyperus difformis = assay: Herbicidal activity against Cyperus difformis assessed as phytotoxic activity ratings (0- no effect to 5-complete killing rating scale) at 100 g/a measured after 3 weeks post compound treatment under green house conditions; assay type: functional
Cyperus serotinus [1] = assay: Herbicidal activity against Cyperus serotinus assessed as phytotoxic activity ratings (0- no effect to 5-complete killing rating scale) at 100 g/a measured after 3 weeks post compound treatment under green house conditions; assay type: functional
Oryza sativa [2] = assay: Phytotoxicity against transplanted Oryza sativa (rice) seedlings assessed as phytotoxic activity ratings (0- no effect to 5-complete killing rating scale) at 100 g/a measured after 3 weeks post compound treatment under green house conditions; assay type: organism-based; settings: in vivo, 504 h
[3] = test system: Schoenoplectiella juncoides; assay: Herbicidal activity against Schoenoplectiella juncoides var. Hotarui Ohwi assessed as phytotoxic activity ratings (0- no effect to 5-complete killing rating scale) at 100 g/a measured after 3 weeks post compound treatment under green house conditions; assay type: functional
Oryza sativa [4] = assay: Phytotoxicity against directly seeded Oryza sativa (rice) seedlings assessed as phytotoxic activity ratings (0- no effect to 5-complete killing rating scale) at 100 g/a measured after 3 weeks post compound treatment under green house conditions; assay type: organism-based; settings: in vivo, 504 h
Cyperus serotinus [5] = assay: Herbicidal activity against Cyperus serotinus assessed as phytotoxic activity ratings (0- no effect to 5-complete killing rating scale) at 3.1 to 100 g/a measured after 3 weeks post compound treatment under green house conditions; assay type: functional

Row | SMILES | Activity (Echinochloa oryzicola) | Activity (Cyperus difformis) | Activity (Cyperus serotinus [1]) | Activity (Oryza sativa [2]) | Activity [3] | Activity (Oryza sativa [4]) | Activity (Cyperus serotinus [5])
1 | C[C@H](NC(=O)Nc1cccc(C(F)(F)F)c1)c1ccccc1 | 10% | 10% | 0% | 0% | 0% | 0% | –
2 | CCc1cccc(NC(=O)N[C@@H](C)c2ccccc2)c1 | 0% | 40% | 0% | 0% | 40% | 0% | –
3 | COc1cccc(NC(=O)N[C@@H](C)c2ccccc2)c1 | 0% | 0% | 0% | 0% | 0% | 0% | –
4 | Cc1ccccc1NC(=O)N[C@@H](C)c1ccccc1 | 0% | 0% | 0% | 0% | 0% | 0% | –
5 | C[C@@H](NC(=O)Nc1ccccc1)c1ccccc1 | 40% | 40% | 80% | 0% | 10% | 0% | –
6 | C[C@H](NC(=O)Nc1c(F)cccc1F)c1ccccc1 | 0% | 0% | 0% | 0% | 0% | 0% | –
7 | C[C@@H](NC(=O)Nc1ccc(Cl)c(Cl)c1)c1ccccc1 | 0% | 0% | – | 0% | 0% | 0% | inactive
8 | C[C@@H](NC(=O)Nc1c(F)cccc1F)c1ccccc1 | 40% | 40% | 40% | 0% | 40% | – | –
9 | C[C@@H](NC(=O)Nc1cc(F)ccc1F)c1ccccc1 | 0% | 0% | – | 0% | 0% | 0% | inactive
10 | C[C@H](NC(=O)Nc1ccc(I)cc1)c1ccccc1 | 0% | 0% | – | 0% | 0% | 0% | inactive
11 | CC(=O)c1ccc(NC(=O)N[C@@H](C)c2ccccc2)cc1 | 0% | 0% | – | 0% | 0% | 0% | inactive
12 | CC(=O)c1ccccc1NC(=O)N[C@@H](C)c1ccccc1 | 0% | 0% | – | 0% | 0% | 0% | inactive
13 | COc1ccc(NC(=O)N[C@H](C)c2ccccc2)cc1 | 0% | 0% | – | 0% | 0% | 0% | inactive
14 | CC(=O)c1ccc(NC(=O)N[C@H](C)c2ccccc2)cc1 | 40% | 0% | – | 0% | 0% | 0% | inactive
15 | C[C@@H](NC(=O)Nc1ccccc1Br)c1ccccc1 | 0% | 10% | – | 0% | 0% | 0% | inactive
16 | C[C@H](NC(=O)Nc1cccc(Cl)c1)c1ccccc1 | 0% | 10% | – | 0% | 0% | 0% | inactive
17 | C[C@@H](NC(=O)Nc1ccc(Cl)cc1)c1ccccc1 | 0% | 0% | – | 0% | 0% | 0% | inactive
18 | C[C@H](NC(=O)Nc1ccc(F)cc1F)c1ccccc1 | 0% | 0% | – | 0% | 0% | 0% | inactive
19 | C[C@@H](NC(=O)Nc1cc(C(F)(F)F)ccc1F)c1ccccc1 | 80% | 0% | – | 0% | 0% | 10% | inactive
20 | C[C@@H](NC(=O)Nc1ccc(I)cc1)c1ccccc1 | 0% | 0% | – | 0% | 0% | 0% | inactive
21 | C[C@@H](NC(=O)Nc1cc(F)cc(F)c1)c1ccccc1 | 0% | 0% | – | 0% | 0% | 0% | inactive

Row | SMILES | Activity (Echinochloa oryzicola) | Activity (Cyperus difformis) | Activity (Cyperus serotinus [1]) | Activity (Oryza sativa [2]) | Activity [3] | Activity (Oryza sativa [4]) | Activity (Cyperus serotinus [5])
22 | C[C@@H](NC(=O)Nc1ccc(F)cc1F)c1ccccc1 | 0% | 0% | – | 0% | 0% | 0% | inactive
23 | C[C@H](NC(=O)Nc1ccc(Cl)c(Cl)c1)c1ccccc1 | 0% | 0% | – | 0% | 0% | 0% | inactive
24 | CCOC(=O)c1ccc(NC(=O)N[C@H](C)c2ccccc2)cc1 | 0% | 0% | – | 0% | 0% | 0% | inactive
25 | CC(=O)c1ccccc1NC(=O)N[C@H](C)c1ccccc1 | 0% | 0% | – | 0% | 0% | 0% | inactive
26 | CCCCCc1ccc(NC(=O)N[C@H](C)c2ccccc2)cc1 | 0% | 0% | – | 0% | 0% | 0% | inactive
27 | C[C@H](NC(=O)Nc1cccc(Cl)c1Cl)c1ccccc1 | 0% | 0% | – | 0% | 0% | 0% | inactive
28 | C[C@@H](NC(=O)Nc1cccc(Cl)c1Cl)c1ccccc1 | 0% | 0% | – | 0% | 0% | 0% | inactive
29 | C[C@H](NC(=O)Nc1cccc(Br)c1)c1ccccc1 | 0% | 10% | – | 0% | 0% | 0% | inactive
30 | C[C@@H](NC(=O)Nc1cccc(Br)c1)c1ccccc1 | 0% | 10% | – | 0% | 0% | 0% | inactive
31 | C[C@H](NC(=O)Nc1ccc(Cl)cc1)c1ccccc1 | 0% | 0% | – | 0% | 0% | 0% | inactive
32 | CCc1cccc(CC)c1NC(=O)N[C@H](C)c1ccccc1 | 0% | 0% | – | 0% | 0% | 0% | inactive
33 | C[C@@H](NC(=O)Nc1cccc(I)c1)c1ccccc1 | 0% | 10% | – | 0% | 0% | 0% | inactive
34 | C[C@H](NC(=O)Nc1ccccc1Cl)c1ccccc1 | 0% | 10% | – | 0% | 0% | 0% | inactive
35 | CCCCc1ccc(NC(=O)N[C@@H](C)c2ccccc2)cc1 | 10% | 0% | – | 0% | 0% | 10% | inactive
36 | Cc1ccc(NC(=O)N[C@H](C)c2ccccc2)c(F)c1 | 0% | 0% | – | 0% | 0% | 0% | inactive
37 | Cc1ccc(NC(=O)N[C@@H](C)c2ccccc2)c(F)c1 | 0% | 0% | – | 0% | 0% | 0% | inactive
38 | CCOC(=O)c1cccc(NC(=O)N[C@@H](C)c2ccccc2)c1 | 0% | 0% | – | 0% | 0% | 0% | inactive
39 | CC(=O)c1cccc(NC(=O)N[C@@H](C)c2ccccc2)c1 | 0% | 0% | – | 0% | 0% | 0% | inactive
40 | C[C@H](NC(=O)Nc1ccc(F)cc1)c1ccccc1 | 0% | 0% | – | 0% | 0% | 0% | inactive
41 | COc1ccccc1NC(=O)N[C@H](C)c1ccccc1 | 0% | 0% | – | 0% | 0% | 0% | inactive
